The values below come from ChEMBL document CHEMBL5512688 (J Med Chem, 2024).

For data set [1], the system named is A-427. The data set is described as follows: Antiproliferative activity against human A-427 cells assessed as inhibition of cell growth incubated for 72 hrs by CCK-8 assay. It counts as functional, cell-based. Particulars: A-427, 72 h. Background: Formazan colour is commonly taken as a measure of viable cells.
The target in data set [2] is Wee1-like protein kinase (Homo sapiens, UniProt P30291). Put plainly: Inhibition of human Wee1 (215 to 647 residues) using polyornithine/tyrosine (4:1) as substrate incubated for 5 mins in presence of ATP by micro beta plate reader analysis.
Data set [3] can be described thus: Metabolic stability in mouse liver microsome assessed as parent compound remaining measured at 60 mins by LCMS/MS analysis. It counts as ADME. The note with it: liver microsomes, read-out: Stability. A general note: Liver microsomes are vesicles of endoplasmic reticulum, rich in cytochrome P450 enzymes.
The nature of data set [4]: Metabolic stability in human liver microsome assessed as parent compound remaining measured at 60 mins by LCMS/MS analysis. It counts as ADME. Particulars: liver microsomes, read-out: Stability.
Data set [5] is described as follows: Half life in ICR mouse at 60 mg/kg, IG measured upto 24 hrs by LC-MS/MS analysis. Format: ADME, organism-based. Particulars: in vivo, po.
Data set [6] can be described thus: Volume of distribution in ICR mouse at 1 mg/kg, iv measured upto 24 hrs by LC-MS/MS analysis. Format: ADME, organism-based. The note with it: in vivo.
Data set [7] in a line: AUC (0 to 24 hrs) in ICR mouse at 1 mg/kg, iv measured upto 24 hrs by LC-MS/MS analysis. The note with it: in vivo. Format: ADME, organism-based.
A short description of data set [8]: Bioavailability in ICR mouse at 60 mg/kg, IG measured upto 24 hrs by LC-MS/MS analysis. Format: ADME, organism-based. The note with it: in vivo, po.
A short description of data set [9]: Clearance in ICR mouse at 1 mg/kg, iv measured upto 24 hrs by LC-MS/MS analysis. Format: ADME, organism-based. Particulars: in vivo.
A short description of data set [10]: Half life in ICR mouse at 1 mg/kg, iv measured upto 24 hrs by LC-MS/MS analysis. Format: ADME, organism-based. The note with it: in vivo.
Data set [11] can be described thus: AUC (0 to 24 hrs) in ICR mouse at 60 mg/kg, IG measured upto 24 hrs by LC-MS/MS analysis. Particulars: in vivo, po. It counts as ADME, organism-based.

Wee1-like protein kinase, sequence (P30291 whole entry, the tested form may be a part): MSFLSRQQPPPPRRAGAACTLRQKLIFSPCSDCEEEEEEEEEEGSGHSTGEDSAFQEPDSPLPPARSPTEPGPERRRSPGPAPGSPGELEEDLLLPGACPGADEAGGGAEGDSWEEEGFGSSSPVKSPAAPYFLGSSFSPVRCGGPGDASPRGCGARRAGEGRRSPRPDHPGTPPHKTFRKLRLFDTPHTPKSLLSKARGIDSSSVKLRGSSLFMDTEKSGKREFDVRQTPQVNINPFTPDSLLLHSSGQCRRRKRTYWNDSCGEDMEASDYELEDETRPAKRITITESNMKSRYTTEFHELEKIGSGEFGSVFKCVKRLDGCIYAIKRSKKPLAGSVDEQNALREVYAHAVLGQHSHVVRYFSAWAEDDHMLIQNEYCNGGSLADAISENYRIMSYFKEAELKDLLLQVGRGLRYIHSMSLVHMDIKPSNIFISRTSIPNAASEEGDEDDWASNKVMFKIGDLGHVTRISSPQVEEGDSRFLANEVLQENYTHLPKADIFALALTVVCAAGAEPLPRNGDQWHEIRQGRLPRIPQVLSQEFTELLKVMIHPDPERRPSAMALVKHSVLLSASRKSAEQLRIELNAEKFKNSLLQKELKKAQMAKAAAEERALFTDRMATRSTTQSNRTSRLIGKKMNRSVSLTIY

As for `C=CCn1c(=O)c2cnc(Nc3ccc(N4CCN(C)CC4)cc3)nc2n1-c1cccc(-n2ccc(C)n2)n1`, the half-maximal inhibitory concentration (IC50) (in general, the midpoint of a concentration-inhibition curve) in data set [1] amounted to 898 nM; in [2], 4.1 nM.
In the same order, the values of `CN1CCN(c2ccc(Nc3ncc4c(=O)n(CC5CC5)n(-c5cccc(-c6cnccn6)n5)c4n3)cc2)CC1` are 1870 nM and 33 nM.
On to `C=CCn1c(=O)c2cnc(Nc3ccc(N4C[C@H]5C[C@@H]4CN5C)cc3)nc2n1-c1cccc(-c2cnccn2)n1`, for which the figures for the 50% inhibitory concentration (IC50) in [1] and in data set [2] were 226 nM and 2.3 nM, respectively. The remaining at 1 h in [3] was determined as 40.5%; in [4], 73.5%.
In the same order, the values of `C=CCn1c(=O)c2cnc(Nc3ccc(N4CCN(CCN(C)C)CC4)cc3)nc2n1-c1cccc(-c2cnccn2)n1` are 238 nM, 3.1 nM, 56.9% and 67.2%.
As for `C=CCn1c(=O)c2cnc(Nc3ccc(N4CCN(C)CC4)cc3)nc2n1-c1cccc(-c2cnc(Cl)cn2)n1`, the IC50 worked out at 434 nM in data set [1] and 2.2 nM in data set [2].
In the case of `C=CCn1c(=O)c2cnc(Nc3ccc(C4CCN(C)CC4)cc3)nc2n1-c1cccc(-c2ncccn2)n1`, the figures for the half-life in data set [5] and in [10] were 3.55 h and 1.51 h, respectively. Besides, the Vd (usually the apparent volume that relates the amount in the body to the concentration in plasma or blood) in data set [6] came to 9.03 L/kg. The values for the IC50 in [1] and in data set [2] were 334 nM and 2.1 nM, respectively. Also, the AUC(0-t) (as a rule, exposure summed from dosing to a finite time, without extrapolation to infinity) at 24 h in data set [7] stood at 236 ng·h/mL; in data set [11], 4280 ng·h/mL. For the same compound, the bioavailability (as a rule, the share of a dose that reaches the circulation, judged against a reference dose that is usually intravenous) in data set [8] is 30.3%. In addition, the remaining at 1 h was 79.4% in data set [3] and 67.3% in data set [4]. For the same compound, the clearance (usually a measure of how efficiently the substance is removed, as volume per time) in data set [9] was 69.5 mL/min/kg.
Take `C=CCn1c(=O)c2cnc(Nc3ccc(N4CCN(C)CC4)cc3)nc2n1-c1cccc(-c2cnn(C(F)F)c2)n1`: the IC50 is 372 nM in data set [1] and 2.5 nM in data set [2].
In the same order, the values of `C=CCn1c(=O)c2cnc(Nc3ccc(N4CCN(C)CC4)cc3)nc2n1-c1cncc(-c2cnccn2)c1` are 4180 nM and 13.4 nM.
In the case of `C=CCn1c(=O)c2cnc(Nc3ccc(N4CCN(CCN(C)C)CC4)cc3)nc2n1-c1cccc(-c2ncccn2)n1`, the IC50 in data set [1] amounted to 556 nM; in data set [2], 3.1 nM. For the same compound, the remaining at 1 h in [3] is 94.7%; in data set [4] it was 106%.
As for `C=CCn1c(=O)c2cnc(Nc3ccc(N4C5CCC4CN(C)C5)cc3)nc2n1-c1cccc(-c2cccnn2)n1`, the half-maximal inhibitory concentration (IC50) in data set [1] stood at 226 nM; in [2], 3 nM. Also, the remaining at 1 h in data set [3] worked out at 23.8%; in data set [4] it was 28.6%.
In the same order, the values of `C=CCn1c(=O)c2cnc(Nc3ccc(N4CCN(C)CC4)cc3)nc2n1-c1cccc(-c2ncc(F)cn2)n1` are 454 nM, 3.2 nM, 48.2% and 49.8%.
With `C=CCn1c(=O)c2cnc(Nc3ccc(N4C5CCC4CN(C)C5)cc3)nc2n1-c1cccc(-c2cnccn2)n1`, the results for the IC50 in data set [1] and in [2] were 603 nM and 2 nM, respectively.
`C=CCn1c(=O)c2cnc(Nc3ccc4c(c3)CNCC4)nc2n1-c1cccc(-c2ncccn2)n1`: the half-inhibitory concentration (IC50) in data set [1] was determined as 283 nM; in data set [2] it was 1.4 nM. The values for the remaining at 1 h in data set [3] and in data set [4] were 65.8% and 81%, respectively.
As to `C=CCn1c(=O)c2cnc(Nc3ccc(N4CCN(C)CC4)cc3)nc2n1-c1ccc2ccccc2n1`, the values for the IC50 in data set [1] and in [2] were 949 nM and 2.2 nM, respectively.
In the case of `C=CCn1c(=O)c2cnc(Nc3ccc(N4CCN(C)CC4)cc3)nc2n1-c1cccc(-n2cc(F)cn2)n1`, the IC50 in data set [1] is 329 nM; in data set [2], 4.5 nM. Moreover, the remaining at 1 h in data set [3] stood at 15.9%; in [4], 3.89%.
For the compound `C=CCn1c(=O)c2cnc(Nc3ccc(N4CCN(C)CC4)cc3)nc2n1-c1cccc(-n2cccn2)n1`, the results for the half-inhibitory concentration (IC50) in data set [1] and in [2] were 252 nM and 2.4 nM, respectively. For the same compound, the remaining at 1 h in data set [3] turned out to be 8.82%; in data set [4], 18%.
On to `CC(C)n1c(=O)c2cnc(Nc3ccc(N4CCN(C)CC4)cc3)nc2n1-c1cccc(-c2cnccn2)n1`, for which the 50% inhibitory concentration (IC50) in data set [1] was determined as 1410 nM; in data set [2], 3.4 nM.
In the case of `C=CCn1c(=O)c2cnc(Nc3ccc(N4CCN(C)CC4)cc3)nc2n1-c1cccc(-c2cccc(F)n2)n1`, the IC50 in [1] is 280 nM; in [2], 2.2 nM. Besides, the remaining at 1 h worked out at 18.4% in data set [3] and 32.5% in data set [4].
In the same order, the values of `C=CCn1c(=O)c2cnc(Nc3ccc(N4C[C@@H](C)N[C@@H](C)C4)cc3)nc2n1-c1cccc(-c2cnccn2)n1` are 232 nM, 1.7 nM, 17.8% and 44.1%.
Consider `C=CCn1c(=O)c2cnc(Nc3ccc(N4CCN(C)CC4)cc3)nc2n1-c1cc(-c2cnccn2)ccn1`, for which the IC50 in data set [1] came to 3510 nM; in data set [2] it was 12.6 nM.
In the same order, the values of `COCCn1c(=O)c2cnc(Nc3ccc(N4CCN(C)CC4)cc3)nc2n1-c1cccc(-c2cnccn2)n1` are 512 nM and 16 nM.
In the same order, the values of `C=CCn1c(=O)c2cnc(Nc3ccc(N4CCN(C)CC4)cc3)nc2n1-c1cccc(-c2cnn(C)c2)n1` are 616 nM and 2.6 nM.
Regarding `C=CCn1c(=O)c2cnc(Nc3ccc4c(c3)CN(C)CC4)nc2n1-c1cccc(-c2cccnn2)n1`, the half-inhibitory concentration (IC50) came to 245 nM in data set [1] and 2.3 nM in data set [2]. Also, the figures for the remaining at 1 h in data set [3] and in [4] were 39.4% and 42.2%, respectively.
As for `C=CCn1c(=O)c2cnc(Nc3ccc(N4CCN(C)CC4)cc3)nc2n1-c1cccc(-c2ncc(C#N)cn2)n1`, the concentration for half-maximal inhibition (IC50) in [1] was determined as 342 nM; in data set [2], 2.4 nM.
In the same order, the values of `C=CCn1c(=O)c2cnc(Nc3ccc(N4CCN(C)CC4)cc3)nc2n1-c1cccc(-n2nc(C)cc2C)n1` are 955 nM and 2.2 nM.
As for `C=CCn1c(=O)c2cnc(Nc3ccc(C4CCN(C)CC4)cc3)nc2n1-c1cccc(-c2cccnn2)n1`, the IC50 was determined as 156 nM in data set [1] and 1.8 nM in data set [2]. Also, the remaining at 1 h came to 44.7% in [3] and 67% in [4].
Regarding `C=CCn1c(=O)c2cnc(Nc3ccc(N4CCN(C)CC4)cc3)nc2n1-c1cccc(-c2cc(F)ccn2)n1`, the IC50 in [1] stood at 240 nM; in data set [2], 2.4 nM. The figures for the remaining at 1 h in [3] and in [4] were 13.4% and 30.7%, respectively.
Regarding `C=CCn1c(=O)c2cnc(Nc3ccc(N4CCN(C)CC4)cc3)nc2n1-c1ccc2ncn(C(C)C)c2c1`, the values for the IC50 in [1] and in data set [2] were 310 nM and 2.1 nM, respectively.
For `C=CCCn1c(=O)c2cnc(Nc3ccc(N4CCN(C)CC4)cc3)nc2n1-c1cccc(-c2cnccn2)n1`, the figures for the 50% inhibitory concentration (IC50) in [1] and in data set [2] were 1050 nM and 9.4 nM, respectively.
Compound `C=CCn1c(=O)c2cnc(Nc3ccc(N4CCNCC4)cc3)nc2n1-c1cccc(-c2ncccn2)n1` showed a Vd in data set [6] of 5.66 L/kg. Moreover, the half-maximal inhibitory concentration (IC50) in [1] is 320 nM; in [2], 0.89 nM. The exposure AUC(0-t) at 24 h came out at 199 ng·h/mL in data set [7] and 235 ng·h/mL in data set [11]. This compound showed a bioavailability in [8] of 1.96%. The remaining at 1 h came out at 99.1% in [3] and 90.9% in [4]. Also, the clearance in data set [9] was 82 mL/min/kg. The half-life (in general, how long it takes for the measured level to halve) in data set [10] was 1.24 h.
`C=CCn1c(=O)c2cnc(Nc3ccc(N4C[C@@H](C)N[C@@H](C)C4)cc3)nc2n1-c1cccc(-c2cccnn2)n1`: the Vd in [6] was determined as 20.3 L/kg. For the same compound, the values for the IC50 in data set [1] and in data set [2] were 240 nM and 2.1 nM, respectively. The exposure AUC(0-t) at 24 h was found to be 86.7 ng·h/mL in data set [7] and 20.8 ng·h/mL in [11]. In [8], this compound yielded a bioavailability of 0.4%. In addition, the remaining at 1 h in data set [3] is 87.1%; in data set [4], 74.1%. Besides, in data set [9], the clearance is 178 mL/min/kg. The compound also gave a half-life in data set [10] of 1.56 h.
Regarding `C=CCn1c(=O)c2cnc(Nc3ccc(N4CCN(C)CC4)cc3)nc2n1-c1ccc2cnn(C(C)C)c2c1`, the concentration for half-maximal inhibition (IC50) in [1] is 315 nM; in [2] it was 2.4 nM.
For `C=CCn1c(=O)c2cnc(Nc3ccc(N4CCN(C)CC4)cc3)nc2n1-c1cccc(-n2cc(C)cn2)n1`, the concentration for half-maximal inhibition (IC50) came to 221 nM in data set [1] and 3.7 nM in data set [2]. For the same compound, the results for the remaining at 1 h in data set [3] and in data set [4] were 11.2% and 6.06%, respectively.
In the same order, the values of `C=CCn1c(=O)c2cnc(Nc3ccc(N4CCN(C)CC4)c(OC)c3)nc2n1-c1cccc(-c2cccnn2)n1` are 231 nM, 2.5 nM, 53.1% and 34.8%.
In the same order, the values of `C=CCn1c(=O)c2cnc(Nc3ccc(N4CCN(C)CC4)cc3)nc2n1-c1cccc(-c2ccc(F)cn2)n1` are 327 nM, 1.8 nM, 18.1% and 29.7%.
As for `C=CCn1c(=O)c2cnc(Nc3ccc(N4CCN(C)CC4)cc3)nc2n1-c1cccc(-n2cnc(C)c2)n1`, the results for the IC50 in [1] and in data set [2] were 347 nM and 3.8 nM, respectively. The values for the remaining at 1 h in data set [3] and in data set [4] were 18.6% and 7.35%, respectively.
